One data set has as its system diabetic population. The following applies: in combination with sulfonylurea or insulin; cited from earlier work.
Data set [1] concerns obese patients with type 2 diabetes mellitus. The experiment in a line: Randomized, placebo-controlled, double-blind clinical trial of D-chiro-inositol in combination with a sulfonylurea (fasting biomarkers, HbA1c, lipids). The following applies: for difference to placebo in change of mean HbA1c level (%): baseline to endpoint. In kind it is in vivo, human. The protocol:
The objective of this study was to assess the efficacy and safety of D-chiro-inositol when administered as a single oral dose of 1200 mg/day compared to placebo, each in combination with sulfonylureas, for 3 months. Patients were required to have been on sulfonylureas for 3 months prior to study entry without reaching their target dose or with a suboptimal response.
This multicenter, double-blind, parallel-group, placebo-controlled, randomized, fixed-dose clinical study was designed to evaluate 1200 mg/day D-chiro-inositol versus placebo in 270 obese patients with type 2 diabetes mellitus who had been receiving sulfonylureas for at least 3 months without reaching their target or with suboptimal response.
(§1) The study involved 5 scheduled visits. The first visit was the screening visit, followed by a baseline visit up to 2 weeks later. Patients were randomized at the baseline visit, half to 1200 mg/day D-chiro-inositol and half to placebo. and subsequently began 13 weeks of treatment with blinded study medication. There were 3 visits for safety and efficacy assessments, at 4, 8, and 13 weeks after beginning treatment. The 13week visit was the final visit. Patients arrived at the investigational site in a fasted state for all visits. Assessments were to be done at the same time of day at each visit by the same responsible personnel. Medication was taken once a day at the same time of morning, except on visit days, on which the dose was delayed until just after fasting blood samples had been collected.
Patients receiving D-chiro-inositol received four 300 mg capsules once daily for a total daily dose of 1200 mg; placebo patients took 4 placebo capsules once daily. Doses were taken orally, generally in the mornings. Patients were instructed to take their dose in the morning at the same time each day, except on visit days. On visit days, dosing was to be done at the clinic. No instructions were given regarding when to take medication in relation to meals on non-visit days.
(§2) Biomarkers: A meal tolerance test (MTT) was performed at baseline (Visit 2) and the final visit (Visit 5). In addition, blood was drawn at every visit for assessment of fasting glucose and insulin, HbA1c, C-peptide, fructosamine, FFA, triglycerides, total cholesterol, HDL, VLDL, LDL, and Apo-B levels.
Primary Efficacy Variable(s) and Analyses. The primary analysis was based on the change from baseline to endpoint in HbA1c level using the modified ITT and evaluable study populations. The analysis was done using an analysis of covariance (ANCOVA) model with treatment group and the baseline HbA1c value as predictors.
Secondary Efficacy Variable(s) and Analyses. Since all secondary efficacy parameters were continuous, they were analyzed in the same manner as described above for the primary efficacy parameter, with treatment group and baseline values for the relevant parameter used as predictors.

For data set [2], the system named is obese insulin-resistant rhesus monkeys. The following applies: oral or intravenous route; cited from earlier work.
The test system of data set [3] is obese patients with type 2 diabetes mellitus. The data set can be described thus: Meal tolerance test (MTT) at baseline and final visit of the clinical trial. The data set is classed as in vivo, human. The protocol:
Changes in area-under-the-curve (AUC) and 120-minute insulin and glucose levels during the meal tolerance test (MTT).
as §1, §2
AUC (and 120-minute) insulin and glucose levels during the MTT;.
FIGS. 1A, 1B and 2 illustrate the observation that D-chiro-inositol (DCI) prolongs pancreatic production of insulin in patients receiving sulfonylurea compounds. […] At baseline, a time when the subjects had been poorly managed on SU compounds alone, both the DCI group and the SU group responded similarly in their ability to produce insulin in response to the meal challenge. […] Without wishing to be bound by theory, the inventors contemplate that this progression is mediated by pancreatic failure and thus reduced insulin secretion. Therefore the amelioration of this effect by administration of DCI benefits the subject by the aforementioned medical improvements, but also will prevent the progression of diabetes by preventing pancreatic failure and/or decreased insulin production.

A further data set deals with type 2 diabetic patients. The experiment in a line: Subgroup analysis of lipid lowering drug/D-chiro-inositol effects on LDL cholesterol. In kind it is in vivo, human. Particulars: type 2 diabetic patients on sulfonylurea, with or without lipid lowering medications. The protocol:
Due to the observation of lipid lowering effects seen in the DCI group, the clinical trial described in EXAMPLE 1 was further analyzed for synergistic interactions between D-chiro-inositol and lipid lowering medications. Certain patients within the trial were treated according to standard of care with HMC-CoA inhibitors (LIPITOR®, LESCOL®, ZOCOR®, MEVACOR®, PRAVACHOL®), gemfibrozil, or a combination of HMC-CoA and gemfibrozil. No inclusion or exclusion criteria were established for the efficacy of the lipid lowering drug efficacy in the patient population. As stated supra, these patients were being sub optimally treated with a sulfonylurea prior to beginning the clinical trial.

In data set [4] the test system is streptozotocin-treated rats, obese Zucker rats, or normal rats given a glucose load. The following applies: obese Zucker or glucose-loaded normal rats; cited from earlier work.
Where [5] appears, read: evaluable patients with fasting plasma glucose ≦180 mg/dL, 1200 mg/day oral with sulfonylureas.
Where [6] appears, read: evaluable population, 1200 mg/day oral with sulfonylureas, 13 weeks.
[7] abbreviates: patients with fasting plasma glucose ≦180 mg/dL, 1200 mg/day oral with sulfonylureas.

“Also recorded” adds a separate entry of the source.

For `CCc1ccc(CCOc2ccc(CC3SC(=O)NC3=O)cc2)nc1` (stereo not shown) [pioglitazone], the “rate of mild to moderate hypoglycemia” value with diabetic population was 1-2%.

Consider `OC1C(O)C(O)C(O)C(O)C1O` [D-chiro-inositol], for which, in data set [1] (all subjects using LOCF at endpoint, 1200 mg/day oral with sulfonylureas, 13 weeks), the “Mean change (in %) in HbA1c levels from baseline to endpoint” value was −0.16%. In addition, the “decrease in mean HbA1c level (%) from baseline to endpoint” value in data set [1] (evaluable patients with FPG≦180 mg/dL, value printed as size of the decrease) is reported as 0.53%. For the same molecule, in data set [1] (setting [5]), the “Apo-B, mean change” value was -4.00 mg/dL. For the same molecule, in data set [1] (evaluable population), the “difference to placebo in change of mean HbA1c level (%)” value worked out at 0.36%. In data set [1] (setting [6]), the “FFA, mean change at endpoint” value is recorded as −0.07 mEq/L. Also, the “decrease in mean HbA1c levels (%) from baseline to endpoint” value in data set [1] (evaluable population, value printed as size of the decrease) is recorded as 0.16%. Moreover, the “difference to placebo in change of mean HbA1c level (%)” value in data set [1] (patients with FPG≦180 mg/dL) came to 0.80%. Besides, the “Mean change (in %) in HbA1c levels to endpoint” value in data set [1] (patients with fasting plasma glucose ≦180 mg/dL, LOCF at endpoint, 1200 mg/day oral with sulfonylureas) is −0.53%. Moreover, in data set [1] (setting [7]), the “Mean change (in %) in HbA1c levels to Week 4” value was −0.47% and the “Mean change (in %) in HbA1c levels to Week 8” value is on record as −0.57%. The “disappearance rate of plasma glucose and insulin” value in data set [2] was “significantly increased the disappearance rate of both plasma glucose and insulin”. Further, in data set [3] (DCI+SU, scatter diagram of individual subjects, median, listed as DCI), the “Change in insulin AUC from baseline to final (FIG. 2)” value is recorded as “no significant negative scatter; also recorded: slightly increased the insulin AUC”. Further, in data set [3] (DCI+SU, subjects with fasting blood glucose ≤180 mg/dl, three month timepoint, listed as DCI), the “insulin response after a meal tolerance test, baseline versus final (FIGS. 1A, 1B)” value is listed as “maintained this response after the 13 week course of treatment; also recorded: maintains a constant insulin response over the testing period”. Also, the “AUC insulin, mean change” value in data set [3] (setting [5]) is 1070.8 μU/mL · hr. Also, in data set [3] (setting [6]), the “120-min. insulin, mean change at endpoint” value came out at 3.50 μU/mL and the “AUC insulin, mean change at endpoint” value is 484.4 μU/mL · hr. Moreover, the “effect on LDL cholesterol (FIG. 3)” value with type 2 diabetic patients is listed as “significantly reduced the increase of LDL cholesterol”. Besides, the glycemic control entry in data set [4] was “significantly improved glycemic control”.

Values taken from patent US6492339B1, “Compositions comprising D-chiro inositol and sulfonylureas and methods of treatment thereof” (Insmed, Incorporated, priority 2001, dated 2002).
